Here are results for three compounds from patent US20210206770A1, “Co-Crystal of an Orally Available Janus Kinase Inhibitor” (Sandoz AG, priority 2017, published 2021).

Series [1] in a line: Dissolution testing, Experiment 1: stirring in water at room temperature. The class given is physicochemical. The note with it: 5 mg Form A or same molar amount of co-crystal stirred at room temperature in 100 ml water. An excerpt: Experiment 1 clearly indicated significant and faster dissolution of the barcitinib lactic acid co-crystal of the invention compared to pure cristallin baritinib form A. However, no quantitative data could be derived from this setup.

A short description of series [2]: Differential scanning calorimetry (thermal stability). To be noted: heating rate 10 K/min, up to melting at about 168-170° C. Format: physicochemical. On the procedure:
The baricitinib lactic acid co-crystal according to the present invention was investigated by DSC, which was performed with a DSC 7 (Perkin-Elmer, Norwalk, Conn., USA) using a Pyris 2.0 software. Approximately 4±0.0005 mg sample (using a UM3 ultramicrobalance, Mettler, Greifensee, CH) were weighed into Al-Pans (25 μl) and sealed with a cover, which was perforated by a needle. Dry nitrogen was used as the purge gas (purge: 20 ml/min). Heating rate: 10 K/min.
On the technique in general: In DSC, transitions show as peaks or steps in heat flow.

Series [3] is described as follows: Dissolution testing, Experiment 2: photometric (310 nm) dissolution in phosphate buffer pH 6.8. The note with it: 50 mL phosphate buffer pH 6.8, 0.01% Tween 80, 37° C. The class given is physicochemical. On the procedure: We used this to quantify baricitinib concentrations. Light absorption was measured with a Shimadzu UV-1800 double beam photometer at 310 nm in a lcm quartz glass cuvette.
To counterbalance the acidifying effect of the lactic acid from the barcitinib lactic acid co-crystal, the experiments were performed in a phosphate buffer solution at a constant pH of 6.8 ([…]; 0.01 mol/L). Furthermore, 0.01% Tween 80 was added to the buffer solution in order to avoid potential agglomeration during the dissolution test.
Experiment 2: 20 mg of crystalline baricitinib free base Form A or 24.85 mg of the baricitinib lactic acid co-crystal of the present invention were stirred in a closed vessel in 50 mL of the buffer solution at 37° C. After 1, 5, 10, 15, 20, 30, 45 and 75 minutes filtered samples of the suspension were taken and diluted 1:4 with buffer solution to reach an absorption value within the calibration curve.

The conditions of series [4]: EPAR, cited from earlier work.

As to `CCS(=O)(=O)N1CC(CC#N)(n2cc(-c3ncnc4[nH]ccc34)cn2)C1` [baricitinib free base Form A, 2-[1-(Ethylsulfonyl)-3-[4-(7H-pyrrolo[2,3-d]pyrimidin-4-yl)-1H-pyrazol-1-yl]azetidin-3-yl]acetonitrile, reference compound], in series [1], the dissolution in water result is recorded as “no detectable dissolution”.
As for `CCS(=O)(=O)N1CC(CC#N)(n2cc(-c3ncnc4[nH]ccc34)cn2)C1` [baricitinib lactic acid co-crystal], in series [2], the “thermal stability (DSC)” value was “neither phase changes nor desolvation events are detectable until the sample melts”. The “concentration of dissolved baricitinib at 1 minute compared to baricitinib free base form A” value in series [3] (1 minute) is “three time higher”. In series [3] (FIG. 7), the “dissolution rate compared to baricitinib free base form A” value is “dissolved more quickly”. For the same compound, in series [1], the dissolution in water result was “a detectable and significant amount dissolved within minutes”.
For the compound `CCS(=O)(=O)N1CC(CC#N)(n2cc(-c3ncnc4[nH]ccc34)cn2)C1` [baricitinib, 2-[1-(Ethylsulfonyl)-3-[4-(7H-pyrrolo[2,3-d]pyrimidin-4-yl)-1H-pyrazol-1-yl]azetidin-3-yl]acetonitrile], the “solubility in 0.1 N HCl” value in series [4] (0.1 N HCl) is given as “only slightly soluble”. For the same compound, the solubility in water entry in series [4] (water) was “practically insoluble”.
